Assay results published in article PMC12381781, “Structural and functional insights into the selective inhibition of mutant tau aggregation by purpurin and oleocanthal in frontotemporal dementia” (Protein Science : A Publication of the Protein Society, 2025).

What was measured:
[1] = biological target: T1, R2R3 (WT) tau peptide (Homo sapiens, UniProt P10636); assay: ThT aggregation assay of monomeric R2R3 (WT) peptide; format: biochemical; conditions: compound 10 μM; for ThT-stained aggregates, confocal imaging: R2R3 WT, end of ThT assay
T1 construct: Peptides spanning R2R3—including PHF6 and PHF6*; purchased ProteoGenix (Schiltigheim, France); host or cells: chemical synthesis (custom peptide)
Method: The aggregation kinetics of tau peptides were monitored using a ThT assay. A 40 μL reaction mixture containing 15 μM ThT (Sigma‐Aldrich, Cat. # T3516‐5G) and 50 μM peptide in the absence (control) or presence of 0.1 μM, 1 μM, and 10 μM PUR or OLC was prepared on ice in aggregation buffer (20 mM Tris [pH 7.4], 100 mM NaCl, 1 mM ethylenediaminetetraacetic acid [EDTA]) containing 5 μM heparin (Sigma‐Aldrich, Cat. #H4784). dithiothreitol (DTT) was excluded to avoid its differential effects on the aggregation kinetics of tau peptides containing Cys291 or Cys322 and to prevent peroxide generation by redox‐active compounds like PUR, which can lead to oxidative artifacts and false‐positive inhibition signals, as reported in our previous study (Annadurai, Malina, Salmona, et al., [2022]). This mixture was then dispensed into a clear‐bottom, black 384‐well ViewPlate (Revvity, Waltham, MA, United States; Part # 6007460) and sealed with a TopSealA‐PLUS (Revvity) to prevent evaporation.
Aggregation was monitored using EnSpire Multimode Plate Reader (Revvity) at 37°C with constant agitation (1000 rpm). […] ThT fluorescence (ThT—λ ex: 460–490 nm and λem: 500–550 nm) was recorded every 5–10 min for 48 h.
ThT fluorescence curves were fitted to a sigmoidal function in GraphPad Prism (version 10, San Diego, CA, USA) using the following equation:
Y=Top/1+expV50–X/Slope , where Y is the ThT fluorescence intensity, X is time (h), Top is the maximum fluorescence intensity, V50 is the time to reach 50% of Top, and Slope describes the steepness of the aggregation transition. Baseline fluorescence at the start of the measurements was relatively low across samples and was not separately fitted. In samples showing early increases in fluorescence, the aggregation trajectory was modeled directly without introducing an independent baseline parameter. […]
To evaluate the effect of compounds on the extent of aggregation, the AUC was calculated for each replicate ThT fluorescence curve using GraphPad Prism. […]

[2] = system: preformed R2R3 (P301L) fibrils; assay: Elongation of preformed R2R3 (P301L) fibrils, ThT; format: biochemical; conditions: R2R3 P301L pre-aggregated 24 h, compound 10 μM; for fibril elongation, aggregation post-treatment as percentage of control (AUC after compound addition): further 24–30 h; for ThT-stained aggregates from post-treatment samples, confocal imaging: further 24 h
Method: Peptides were pre‐aggregated for 24 h with aggregation kinetics monitored by ThT fluorescence, after which 10 μM PUR or OLC was added, followed by an additional 24–30 h of incubation (Figure 4a). Aggregation kinetics was monitored by ThT fluorescence, and elongation was quantified as the AUC following compound addition, normalized to each replicate's maximum pre‐treatment fluorescence (Figure 4b). […] WT peptide fibril elongation was reduced to 15.5 ± 2.8% (PUR) and 45.2 ± 3.2% (OLC), and P301L peptide fibril elongation was limited to 31.8 ± 0.6% (PUR) and 85.6 ± 2.2% (OLC) (Figure 4b). Fluorescence microscopy imaging further confirmed the presence of reduced ThT‐positive aggregates following the addition of PUR and OLC (Figure S12). Similar inhibition trends, with PUR outperforming OLC, were also observed for V287I and N279K peptides (Figure S12).
FIGURE 4 Purpurin (PUR) and oleocanthal (OLC) inhibit elongation of preformed wild‐type (WT) and P301L tau fibrils. (a) The thioflavin T (ThT) fluorescence kinetics of pre‐aggregated R2R3 (WT and P301L) tau peptides treated with PUR or OLC (10 μM). Peptides were first allowed to aggregate for 24 h, followed by compound addition and continued incubation for an additional 24–30 h. Vertical dashed lines indicate the time point of compound addition. Curves are normalized to each replicate's maximum pre‐treatment ThT fluorescence. Source data are provided in the Data Availability Statement section. Mean ± SEM (n ≥ 3). (b) Aggregation levels post‐treatment, expressed as a percentage of control (untreated fibrils), calculated from the area under the curve after compound addition. Mean ± SEM (n ≥ 3). ***p < 0.001, **p < 0.01, one‐way ANOVA (Tukey's post hoc test).
Figure S12. Confocal imaging of ThT-stained aggregates from post-treatment samples in Figure 4. R2R3 (WT and P301L) tau peptides were incubated for 24 h to allow initial aggregation, followed by the addition of PUR or OLC (10 µM). After a further 24 h, reaction mixtures from compound-treated wells were collected, embedded in 0.05% low-melting agarose, and processed for imaging as described in Figure S11. […] Scale bar: 50 μm.

T1 sequence (P10636 592-653 limits assumed): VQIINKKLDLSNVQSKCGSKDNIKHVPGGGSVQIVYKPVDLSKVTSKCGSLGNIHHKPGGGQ

Structure (SMILES) | remaining activity at 10 µM ([1]; R2R3 WT 50 μM, read-out: aggregation (% of control), AUC of ThT fluorescence) | ThT-stained aggregates, confocal imaging [1] | fibril elongation, aggregation post-treatment as percentage of control (AUC after compound addition) [2] | ThT-stained aggregates from post-treatment samples, confocal imaging [2]
O=C1c2ccccc2C(=O)c2c(O)c(O)cc(O)c21 [PUR, purpurin] | 63% | moderate reduction in fluorescence intensity | 31.8 ± 0.6% | either a complete absence or a marked reduction in ThT signal
C/C=C(/C=O)[C@@H](CC=O)CC(=O)OCCc1ccc(O)cc1 [OLC, oleocanthal] | – | moderate reduction in fluorescence intensity | 85.6 ± 2.2% | either a complete absence or a marked reduction in ThT signal
